# Reference: patent US20120328711A1, “Antimicrobial system for selective, site-activated binding at target sites” (priority 2011, published 2012)
# Assay: Peroxide retention after desiccation and rehydration (peroxide check strips)
# Type: physicochemical
# Settings: 1 g-10 g extract in 20 ml 35% hydrogen peroxide, heated at 80° C., desiccated to 5 ml, rehydrated; colorimetric strips
smiles,measurement,value
"Oc1ccc(C=Cc2cc(O)cc(O)c2)cc1 [resveratrol, Resveratrol]",peroxide retention capability,relatively less ability to form stable perhydrates
